{
  "source": "paper PMC5788896",
  "about": "(Frontiers in Pharmacology, 2018)",
  "key": {"[1]": {"conditions": "intravenous administration of 1 mg/kg; ref Gavini et al., 2011; cited from earlier work"}, "[2]": {"set-up": "method as in Turina et al., 2006", "conditions": "ref Turina et al., 2006; cited from earlier work"}, "NCM460 cell monolayers [3]": {"test_system": "NCM460 cell monolayers", "conditions": "P-gp efflux transporter substrate; ref Marchetti et al., 2016; cited from earlier work"}, "NCM460 cell monolayers [4]": {"test_system": "NCM460 cell monolayers", "test": "Permeation studies across NCM460 cell monolayers (Millicell inserts, HPLC)", "type": "in vitro ADME, human", "conditions": "A → B higher than B → A, P < 0.001", "procedure": "Differentiation to NCM460 cell monolayers was performed essentially according to the method reported by [Ferretti et al. (2015)]. Briefly, after two passages, confluent NCM460 cells were seeded at a density of 10^5 cells/mL in a 1:1 ratio of fresh and spent culture medium in 12-well Millicell inserts (Millipore, Milan, Italy) consisting of 1.0 μm pore size polyethylene terephthalate (PET) filter membranes, whose surface was 1.12 cm^2. Filters were presoaked for 24 h with fresh culture medium, and then the upper compartment (apical, A) received 400 μL of the diluted cells, whereas the lower compartment (basolateral, B) received 2 mL of the medium in the absence of cells. […] The integrity of the cell monolayers was monitored by measuring the transepithelial electrical resistance (TEER) by means of a voltmeter (Millicell-ERS; Millipore, Milan, Italy). The measured resistance value was multiplied by the area of the filter to obtain an absolute value of TEER, expressed as Ω⋅cm^2. […] The homogeneity and integrity of the cell monolayer were also monitored by phase contrast microscopy. […]\nPermeation experiments were performed in triplicate in both the apical-to-basolateral (A → B) and basolateral-to-apical (B → A) directions. […] TEER values were monitored before and after each experiment. […]\nThe permeabilities were determined for the filters alone (Pf), and for the filters covered with cells (Pt). […]"}, "[5]": {"test": "Stability of geraniol in phosphate buffered saline", "type": "physicochemical", "conditions": "37°C, for at least 8 h, data not shown", "description": "During the experiment drug solutions were shaken continuously and gently in an oscillating water-bath."}, "[6]": {"test": "Intravenous infusion pharmacokinetics, whole blood by HPLC", "type": "in vivo, Sprague-Dawley rats", "procedure": "The samples were extracted and analyzed as described above, with the only difference that the samples withdrawn within 20 min after infusion were diluted 1:10 using the H2O:CH3CN mixture (50:50 v/v) before analysis. Four rats ware employed for intravenous infusions of geraniol. […] The calculations were performed using the computer program GraphPad Prism. […] At the end of the oral administration and at fixed time points, blood samples (100 μL) were collected and CSF samples (50 μL) were withdrawn using the cysternal puncture method described by [van den Berg et al. (2002)], which requires a single needle stick and allows the collection of serial (40–50 μL) CSF samples that are virtually blood-free ([Dalpiaz et al., 2014]). A total volume of approximately 150 μL of CSF was collected during the experimental session. […] In particular, blood withdrawals for all programmed time points were repeated four times with a corresponding number of rats; CSF withdrawals for all programmed time points were repeated at least four times with a number of rats allowing no more than three CSF withdrawals from each of them. […] All the calculations were performed using the computer program Graph Pad Prism."}, "[7]": {"test_system": "Glutathione S-transferase (GST)", "test": "Glutathione S-transferase activity in liver after 28-day treatment", "type": "in vivo, C57BL/6 mice", "conditions": "mice liver", "procedure": "(§1) At the end of treatment, mice were killed.\nThe incubation mixture for measuring overall GST activity contained 1 mM glutathione + 1 mM 1-chloro-2,4-dinitrobenzene (CDNB) in methanol + 0.025 mL of sample in a final volume of 2.5 mL 0.1 M phosphate Na^+/K^+ buffer (pH 6.5). The product of the reaction of the thiol group of glutathione with the electrophilic group of CDNB was read at 340 nm (ε = 9.6 mM^-1 cm^-1) ([Vivarelli et al., 2016a])."}, "[8]": {"test_system": "UDP glucuronosyl-transferase (UDPGT)", "test": "UDP-glucuronosyl transferase activity in liver after 28-day treatment", "type": "in vivo, C57BL/6 mice", "conditions": "mice liver", "procedure": "At the end of treatment, mice were killed. […] Experiments were performed in the presence or absence of Triton X-100 (0.2%) as a detergent, in order to improve the assay sensitivity ([Canistro et al., 2008])."}, "Catalase (CAT)": {"test_system": "Catalase (CAT)", "test": "Catalase activity in liver after 28-day treatment", "type": "in vivo, C57BL/6 mice", "conditions": "mice liver", "procedure": "At the end of treatment, mice were killed. […] Catalase (CAT) activity. The reaction was started in a quartz cuvette containing 50 mM potassium phosphate buffer and cytosol sample by adding 30 mM H2O2."}, "[9]": {"test_system": "NAD(P)H: quinone reductase (NQO1)", "test": "NAD(P)H:quinone reductase activity in liver after 28-day treatment", "type": "in vivo, C57BL/6 mice", "conditions": "mice liver, geraniol 120 mg/kg by gavage for 28 days", "description": "At the end of treatment, mice were killed. […] NAD(P)H:quinone reductase (NQO1) activity."}, "[10]": {"test_system": "Superoxide dismutase (SOD)", "test": "Superoxide dismutase activity in liver after 28-day treatment", "type": "in vivo, C57BL/6 mice", "conditions": "mice liver", "procedure": "At the end of treatment, mice were killed. […] Superoxide dismutase activity (SOD): Superoxide dismutase activity was determined according to Misra and Fridovich’s assay ([Misra and Fridovich, 1972]). Briefly, the activity was assayed spectophotometrically at […] by monitoring the generation of adenochrome, one of the main products of epinephrine autoxidation at pH 10.2. The dejection of autoxidation was used to calculate SOD activity using the extinction coefficient of 4.02 per mM × cm, and expressed as mol of epinephrine oxidized/min per mg protein, derived by subtracting each test curve from the epinephrine autoxidation standard curve ([Bonamassa et al., 2016])."}, "[11]": {"test_system": "Oxidized glutathione reductase (GSSG-red)", "test": "Oxidized glutathione reductase activity in liver after 28-day treatment", "type": "in vivo, C57BL/6 mice", "conditions": "mice liver", "procedure": "At the end of treatment, mice were killed. […] Oxidized glutathione reductase activity (GSSG-red). […] The generation of NADP^+ from NADPH during the reduction of GSSG was recorded at 340 nm for 5 min at 37°C. GSSG-red activity was calculated using the extinction coefficient of 6.22 per mM x cm, and expressed as mol of NADPH consumed/min per mg protein ([Bonamassa et al., 2016])."}, "[12]": {"test": "Hematochemical analysis and lipid serum profile after 28-day treatment", "type": "in vivo, C57BL/6 mice", "procedure": "as §1\nFor each animal, blood samples were collected in both heparinized and non-heparinized tubes. Plasma from heparinized samples was obtained after tabletop centrifugation at 2,000 rpm, while blood in non-heparinized tubes was centrifuged at 1,500 rpm for 10 min after complete coagulation, to obtain serum. Biochemical and hematological analyses were assessed by the Department of Veterinary Medical Science, University of Bologna."}, "[13]": {"set-up": "method as in Turina et al., 2006", "conditions": "ref Turina et al., 2006; cited from earlier work", "remark": "listed apart in the source"}, "[14]": {"conditions": "120 mg/kg 28 days, versus controls"}, "[15]": {"conditions": "geraniol 120 mg/kg by gavage for 28 days"}, "[16]": {"conditions": "mice blood, geraniol 120 mg/kg by gavage for 28 days"}, "[17]": {"conditions": "mice serum, geraniol 120 mg/kg by gavage for 28 days"}},
  "data": [
    {"smiles": "CCCC(=O)O[C@H]1[C@H](C)O[C@@H](O[C@H]2[C@H](N(C)C)[C@@H](O)[C@H](O[C@H]3[C@@H](CC=O)C[C@@H](C)[C@@H](O)/C=C/C=C/C[C@@H](C)OC(=O)C[C@@H](O)[C@@H]3OC)O[C@@H]2C)C[C@@]1(C)OC(=O)CC", "note": "[rokitamycin]", "values": [
      {"measurement": "concentration values in whole blood", "setting": "[1]", "value": "up to 7 μg/mL"}
    ]},
    {"smiles": "CC12CCC(CC1)C(C)(C)O2", "note": "[cineole]", "values": [
      {"measurement": "membrane/water partition coefficient (Pm/w)", "setting": "[2]", "value": 3.37}
    ]},
    {"smiles": "CC1CCC(C(C)C)C(O)C1", "note": "(stereo not shown) [menthol]", "values": [
      {"measurement": "membrane/water partition coefficient (Pm/w)", "setting": "[2]", "value": 2.44}
    ]},
    {"smiles": "CCN(CC)C(=O)Nc1ccc(OCC(O)CNC(C)(C)C)c(C(C)=O)c1", "note": "(stereo not shown) [celiprolol]", "values": [
      {"measurement": "direction of transport across NCM460 monolayers", "setting": "NCM460 cell monolayers [3]", "value": "rate from basolateral to apical compartments being significantly higher than its rate in the opposite direction"}
    ]},
    {"smiles": "CC12CCC(CC1=O)C2(C)C", "note": "(stereo not shown) [camphor]", "values": [
      {"measurement": "membrane/water partition coefficient (Pm/w)", "setting": "[2]", "value": 3.99}
    ]},
    {"smiles": "CC(C)=CCC/C(C)=C/CO", "note": "[geraniol, 3,7-dimethylocta-trans-2,6-dien-1-ol]", "values": [
      {"measurement": "permeation rate apical to basolateral versus opposite direction", "setting": "NCM460 cell monolayers [4]", "value": "roughly sixfold"},
      {"measurement": "stability in PBS", "setting": "[5]", "value": "highly stable"},
      {"measurement": "drug concentration in the rat bloodstream after intravenous infusion", "setting": "[6]; iv infusion 12.5 mg (50 mg/kg), end of infusion", "value": "298 ± 19", "unit": "µg/mL"},
      {"measurement": "AUC", "setting": "[6]; male, Sprague-Dawley, rat, iv 50 mg/kg, blood, within 3 h, read-out: AUC, intravenous administration (converted)", "value": 126, "unit": "µg·h/mL"},
      {"measurement": "half-life", "setting": "[6]; male, Sprague-Dawley, rat, iv infusion 12.5 mg (50 mg/kg), apparent first order kinetics, read-out: half-life in the bloodstream", "value": "12.5 ± 1.5", "unit": "min"},
      {"measurement": "effect on Phase II enzymes (GST)", "setting": "[7]; [14]", "value": "not affected"},
      {"measurement": "Glutathione S-transferase (GST), Mean", "setting": "[7]; [15]", "value": 2.60, "unit": "µmol/mg/min"},
      {"measurement": "effect on Phase II enzymes (UDPGT)", "setting": "[8]; [14]", "value": "not affected"},
      {"measurement": "UDP glucuronosyl-transferase (UDPGT), Mean", "setting": "[8]; [15]", "value": 3.89, "unit": "nmol/mg/min"},
      {"measurement": "catalase (CAT) induction with respect to controls", "setting": "Catalase (CAT); 120 mg/kg 28 days, P < 0.01", "value": "up to 29%"},
      {"measurement": "Catalase (CAT), Mean", "setting": "Catalase (CAT); [15]", "value": 2.55, "unit": "µmol/mg/min"},
      {"measurement": "NAD(P)H: quinone reductase (NQO1), Mean", "setting": "[9]", "value": 12.43, "unit": "nmol/mg/min"},
      {"measurement": "effect on Superoxide dismutase (SOD) activity", "setting": "[10]; [14]", "value": "not affected"},
      {"measurement": "Superoxide dismutase (SOD), Mean", "setting": "[10]; [15]", "value": 13.65, "unit": "nmol/mg/min"},
      {"measurement": "oxidized glutathione reductase (GSSG-red) induction with respect to controls", "setting": "[11]; 120 mg/kg 28 days, P < 0.01", "value": "up to 56%"},
      {"measurement": "Oxidized glutathione reductase (GSSG-red), Mean", "setting": "[11]; [15]", "value": 118.31, "unit": "µmol/mg/min"},
      {"measurement": "ALT", "setting": "[12]; [16]", "value": "34 ± 5", "unit": "U/l"},
      {"measurement": "AST", "setting": "[12]; [16]", "value": "149 ± 24", "unit": "U/l"},
      {"measurement": "Cholesterol", "setting": "[12]; [17]", "value": "94 ± 7", "unit": "mg/dL"},
      {"measurement": "HDL cholesterol", "setting": "[12]; [17]", "value": "66 ± 4", "unit": "mg/dL"},
      {"measurement": "liver toxicity", "setting": "[12]; mice, 120 mg/kg of geraniol for 4 weeks", "value": "no signs of liver toxicity"},
      {"measurement": "n-octanol/water partition coefficient", "setting": "[13]", "value": 2.65},
      {"measurement": "membrane/water partition coefficient (Pm/w)", "setting": "[2]", "value": 4.38}
    ]}
  ]
}
